Test results reported in patent US20260285850A1, “SUBSTITUTED OXAZOLIDINONES AND IMIDAZOLINONES AS HERBICIDES” (FMC CORPORATION, priority 2023, published 2026).

Legend:
Format in all cases: in vivo
[1] = system: barnyardgrass (Echinochloa crus-galli); assay: Test A preemergence soil spray, visual injury rating 0-100; conditions: 10 days
Procedure, shortened: (§1)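 Compounds formulated in a non-phytotoxic solvent with surfactant are sprayed onto soil of freshly planted loam-sand pots ahead of emergence, or onto emerged plants 2-10 cm tall. After a 10-day greenhouse period, each species is scored visually for injury against untreated controls.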

[2] = system: blackgrass (Alopecurus myosuroides); assay: as above; conditions: 10 days
Procedure, shortened: as §1

corn (Zea mays) [3] = assay: as above; conditions: 10 days
Procedure, shortened: as §1

[4] = system: green foxtail (Setaria viridis); assay: as above; conditions: 10 days
Procedure, shortened: as §1

kochia (Bassia scoparia) [5] = assay: as above; conditions: 10 days
Procedure, shortened: as §1

[6] = system: oat, wild (wild oat, Avena fatua); assay: as above; conditions: 10 days
Procedure, shortened: as §1

[7] = system: palmer (palmer amaranth, palmer pigweed, Amaranthus palmeri); assay: as above; conditions: 10 days
Procedure, shortened: as §1

[8] = system: ragweed (common ragweed, Ambrosia artemisiifolia); assay: as above; conditions: 10 days
Procedure, shortened: as §1

[9] = system: ryegrass, Italian (italian ryegrass, Lolium multiflorum); assay: as above; conditions: 10 days
Procedure, shortened: as §1

soybean (Glycine max) [10] = assay: as above; conditions: 10 days
Procedure, shortened: as §1

[11] = system: wheat (Triticum aestivum); assay: as above; conditions: 10 days
Procedure, shortened: as §1

[12] = system: barnyardgrass (Echinochloa crus-galli); assay: Test A postemergence application, visual injury rating 0-100
Procedure, shortened: as §1

[13] = system: blackgrass (Alopecurus myosuroides); assay: as above
Procedure, shortened: as §1

corn (Zea mays) [14] = assay: as above
Procedure, shortened: as §1

[15] = system: galium (catchweed bedstraw, Galium aparine); assay: as above
Procedure, shortened: as §1

[16] = system: green foxtail (Setaria viridis); assay: as above
Procedure, shortened: as §1

[17] = system: horseweed (Erigeron canadensis); assay: as above
Procedure, shortened: as §1

kochia (Bassia scoparia) [18] = assay: as above
Procedure, shortened: as §1

[19] = system: oat, wild (wild oat, Avena fatua); assay: as above
Procedure, shortened: as §1

[20] = system: palmer (palmer amaranth, palmer pigweed, Amaranthus palmeri); assay: as above
Procedure, shortened: as §1

[21] = system: ragweed (common ragweed, Ambrosia artemisiifolia); assay: as above
Procedure, shortened: as §1

[22] = system: ryegrass, Italian (italian ryegrass, Lolium multiflorum); assay: as above
Procedure, shortened: as §1

soybean (Glycine max) [23] = assay: as above
Procedure, shortened: as §1

[24] = system: wheat (Triticum aestivum); assay: as above
Procedure, shortened: as §1

[25] = system: barnyardgrass (Echinochloa crusgalli); assay: Test B flooded paddy test, visual plant response rating 0-100; conditions: 250 g ai/ha, Flood, applied to paddy water, evaluated after 13 days
Procedure, shortened: (§2)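 Visual evaluation after 13 days. Water-applied treatment, 3 cm flood depth held constant, plants at 2-leaf stage at treatment.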

[26] = system: ducksalad (Heteranthera limosa); assay: as above; conditions: 250 g ai/ha, Flood, applied to paddy water, evaluated after 13 days
Procedure, shortened: as §2

rice (Oryza sativa) = assay: as above; conditions: 250 g ai/ha, Flood, applied to paddy water, evaluated after 13 days
Procedure, shortened: as §2

[27] = system: sedge, umbrella (small-flower umbrella sedge, Cyperus difformis); assay: as above; conditions: 250 g ai/ha, Flood, applied to paddy water, evaluated after 13 days
Procedure, shortened: as §2

[28] = 62 g ai/ha, 0 = no effect, 100 = complete control
[29] = 62 g ai/ha, postemergence, 10 days, 0 = no effect, 100 = complete control
[30] = Postemergence, 16 g ai/ha, greenhouse 10 days, 0 no effect, 100 complete control

C=CC1(C(=O)NC2CC(C(=O)OC)C2)CN(c2cc(F)cc(F)c2)C(=O)O1 (stereo not shown) [Compound 174]
Barnyardgrass plant response rating ([1]; 16 g ai/ha, 0 to 100 scale): 0
Barnyardgrass plant response rating (0-100) [1, 28]: 0
Blackgrass plant response rating ([2]; 16 g ai/ha, 0 to 100 scale): 0
Blackgrass plant response rating (0-100) [2, 28]: 0
Corn plant response rating (corn (Zea mays) [3]; 16 g ai/ha, 0 to 100 scale): 0
Corn plant response rating (0-100) (corn (Zea mays) [3]; [28]): 0
Foxtail, Green plant response rating ([4]; 16 g ai/ha, 0 to 100 scale): 0
Foxtail, Green plant response rating (0-100) [4, 28]: 0
Kochia plant response rating (kochia (Bassia scoparia) [5]; 16 g ai/ha, 0 to 100 scale): 0
Kochia plant response rating (0-100) (kochia (Bassia scoparia) [5]; [28]): 0
Oat, Wild plant response rating ([6]; 16 g ai/ha, 0 to 100 scale): 0
Oat, Wild plant response rating (0-100) [6, 28]: 0
Pigweed, Palmer plant response rating ([7]; 16 g ai/ha, 0 to 100 scale): 0
Pigweed, Palmer plant response rating (0-100) [7, 28]: 0
Ragweed plant response rating ([8]; 16 g ai/ha, 0 to 100 scale): 0
Ragweed plant response rating (0-100) [8, 28]: 0
Ryegrass, Italian plant response rating ([9]; 16 g ai/ha, 0 to 100 scale): 0
Ryegrass, Italian plant response rating (0-100) [9, 28]: 0
Soybean plant response rating (soybean (Glycine max) [10]; 16 g ai/ha, 0 to 100 scale): 0
Soybean plant response rating (0-100) (soybean (Glycine max) [10]; [28]): 0
Wheat plant response rating ([11]; 16 g ai/ha, 0 to 100 scale): 0
Wheat plant response rating (0-100) [11, 28]: 0
Barnyardgrass plant response rating (0-100) [12, 29]: 20
Barnyardgrass plant response rating (0 to 100 scale) [12, 30]: 10
Blackgrass plant response rating (0-100) [13, 29]: 0
Blackgrass plant response rating (0 to 100 scale) [13, 30]: 0
Corn plant response rating (0-100) (corn (Zea mays) [14]; [29]): 0
Corn plant response rating (0 to 100 scale) (corn (Zea mays) [14]; [30]): 0
Galium plant response rating (0-100) [15, 29]: 0
Galium plant response rating (0 to 100 scale) [15, 30]: 0
Foxtail, Green plant response rating (0-100) [16, 29]: 0
Foxtail, Green plant response rating (0 to 100 scale) [16, 30]: 0
Horseweed plant response rating (0-100) [17, 29]: 0
Horseweed plant response rating (0 to 100 scale) [17, 30]: 0
Kochia plant response rating (0-100) (kochia (Bassia scoparia) [18]; [29]): 0
Kochia plant response rating (0 to 100 scale) (kochia (Bassia scoparia) [18]; [30]): 0
Oat, Wild plant response rating (0-100) [19, 29]: 0
Oat, Wild plant response rating (0 to 100 scale) [19, 30]: 0
Pigweed, Palmer plant response rating (0-100) [20, 29]: 0
Pigweed, Palmer plant response rating (0 to 100 scale) [20, 30]: 0
Ragweed plant response rating (0-100) [21, 29]: 0
Ragweed plant response rating (0 to 100 scale) [21, 30]: 0
Ryegrass, Italian plant response rating (0-100) [22, 29]: 0
Ryegrass, Italian plant response rating (0 to 100 scale) [22, 30]: 0
Soybean plant response rating (0-100) (soybean (Glycine max) [23]; [29]): 0
Soybean plant response rating (0 to 100 scale) (soybean (Glycine max) [23]; [30]): 0
Wheat plant response rating (0-100) [24, 29]: 0
Wheat plant response rating (0 to 100 scale) [24, 30]: 0
Plant response rating, Barnyardgrass (0 to 100 scale, 0 is no effect and 100 is complete control) [25]: 0
Plant response rating, Ducksalad (0 to 100 scale, 0 is no effect and 100 is complete control) [26]: 0
Plant response rating, Rice (0 to 100 scale, 0 is no effect and 100 is complete control) (rice (Oryza sativa)): 0
Plant response rating, Sedge, Umbrella (0 to 100 scale, 0 is no effect and 100 is complete control) [27]: 0
